From US8222242B2, “Nitric oxide releasing compounds” (The Regents of the University of California, priority 2008, dated 2012)

Assays:
D. melanogaster = assay: Nitrite and nitrate in extracts of injected flies; format: in vivo, Drosophila melanogaster; conditions: 1 μl of 1 mM NO-Cbi injected
Method: Nitrite and nitrate in extracts of NO-Cbi-injected flies were measured, and, as in the studies with CS-54 cells, a little over 50% of the injected NO as nitrite and nitrate was recovered (FIG. 3c). The nitrite/nitrate levels reached a maximum at 1 hour, and returned to that of water-injected flies at 4-5 hours (FIG. 3c). […] Nitrite and nitrate excretion likely explained the only partial recovery of NO.

mice = format: in vivo, mouse
Method: Mice were anesthetized with 1.5% isoflurane gas, and after achieving a stable blood pressure and pulse (about 10 minutes), they were injected intraperitoneally with 100 μl of […] 8 mM Cbi(II) (open circles, solid line), 8 mM NO-Cbi (filled circles, dashed line), or 8 mM nitroglycerin (squares, dotted lines) (panels a and b). Control refers to anesthetized mice who received 100 μl water (triangles, solid line). In panel C, 100 μl of 6 mM NO-Cbi was injected at 0, 32, and 64 minutes as indicated by the arrows. Systolic and diastolic blood pressures, and pulse rate, were measured at the indicated times on the tail artery using a non-invasive tail cuff. The percent change in mean arterial pressure (A and C), and pulse rate (B and C) are shown. For panels A and B, data are the mean±SD of results from five mice for NO-Cbi studied on separate days, and four mice for the other conditions. […] Data in panel C are the mean±SD of results from three mice studied on different days.
Pulse, and systolic and diastolic blood pressures, were measured non-invasively in the tail artery of mice by restraining mice on a warming platform maintained at ˜38° C. The base of the tail was placed in a computer-controlled pneumatic cuff, and the distal tail was placed in a sensor assembly consisting of a light emitting diode and a photodiode detector. Baseline measurements were made with the mice awake in a dark chamber. The mice were then anesthetized with 3% isoflurane in an induction chamber, and returned to the platform where they received 1.5% isoflurane with 2 liter per minute of oxygen via a nose cone; the isoflurane caused a small, but stable, drop in blood pressure. Drugs in a volume of 100 ul were injected intraperitoneally into the mice, and pulse and blood pressure were measured every 5-15 minute, taking five readings at each time point.
To determine the effect of NO release from NO-Cbi in an intact mammal, blood pressure and pulse of mice injected intraperitoneally with NO-Cbi were measured.

mouse aortic rings = assay: Relaxation of mouse aortic rings constricted with prostaglandin F2α; conditions: rings pretreated with 2 μM prostaglandin F2α; read-out: EC50, concentration that induced half-maximal relaxation
Method: Hearts and aortas were removed from NIH Swiss mice anesthetized with sodium nembutal, and coronary flow was measured in the hearts using a Langendorff preparation (FIG. 5a) and relaxation of aortic rings was measured after inducing constriction of the rings with prostaglandin F2α (FIG. 5b). The hearts and aortic rings were treated with a range of concentrations of NO-Cbi (filled circles), nitroglycerin (open circles, dotted line, FIG. 5a), and sodium nitroprusside (open circles, FIG. 5b). Coronary flow was measured on the same hearts for both NO-Cbi and nitroglycerin after an appropriate wash-out period between drugs, and aortic ring relaxation was measured on two rings from the same aorta for NO-Cbi and sodium nitroprusside. The data are the mean of two independent experiments performed on two separate hearts in each experiment (FIG. 5a), and the mean±SEM of two independent experiments performed on three separate aortic rings in each experiment (FIG. 5b).
Relaxation of aortic contraction was measured in 3 mm rings cut from thoracic aortas of mice; the rings were pretreated with 2 μM prostaglandin F2α to produce 0.5-1 g of active tension.

rabbits = assay: Rabbits with phenylephrine-induced hypertension; format: in vivo, rabbit
Method: Phenylephrine was given by continuous intravenous infusion to an anesthetized rabbit at increasing rates from 5 to 20 μg/kg/min; the rabbit remained on the highest phenylephrine infusion rate until the end of the experiment (darker arrows with “A”-shaped arrowheads indicate start times of each increasing dose). At 49 minutes, an infusion of NO-Cbi was started at a rate of 3 μg/kg/min (2.9 nmol/kg/min), with the infusion rate doubled at 58 minutes (lighter arrows with triangular-shaped arrowheads indicate start times of infusions). Systolic and diastolic blood pressure recordings from an intra-arterial catheter are shown. Changes in total hemoglobin, oxyhemoglobin, and deoxyhemoglobin concentrations were measured by continuous wave near-infrared spectroscopy over the left thigh muscle. Phenylephrine caused a progressive decrease in total hemoglobin and oxyhemoglobin concentrations, which reversed within seconds of starting the NO-Cbi infusion.
Decreased tissue oxygenation as occurred in the experiments shown in FIGS. 7 and 8 would clearly be an undesirable effect of treating hypertensive patients with NO-Cbi. However, lowering blood pressure of a hypertensive patient is very different from lowering blood pressure of a normotensive subject, and the experiments described in Example 15 rabbits with normal or low (due to anesthesia) blood pressure. To simulate a hypertensive state, the blood pressure of rabbits was raised using a continuous intravenous infusion of phenylephrine, a peripheral vasoconstrictor (FIG. 9). As the rabbit's blood pressure increased above normal, tissue perfusion and oxygenation decreased, as evidenced by a decrease in total hemoglobin and oxyhemoglobin concentrations in muscle.
Thus, in an animal with drug-induced hypertension, NO-Cbi improved tissue perfusion and oxygenation as it lowered blood pressure.

Compound: CC1=C2[N+]3=C(C=C4[N+]5=C(C(C)=C6[N]7C(C(CC(N)=O)C6(C)CCC(=O)NCC(C)O)C6(C)[N+](=C1C(CCC(N)=O)C6(C)CC(N)=O)[Co-3]753[N]=O)C(CCC(N)=O)C4(C)C)C(CCC(N)=O)C2(C)CC(N)=O (stereo not drawn) [NO-Cbi, nitrosyl cobinamide]
- injected NO recovered as nitrite and nitrate (D. melanogaster): over 50%
- time of maximum nitrite/nitrate levels (D. melanogaster): 1 h
- time of return of nitrite/nitrate levels to that of water-injected flies (D. melanogaster): 4 to 5 h
- systolic and diastolic blood pressure (mice; 0.8 μmol (100 μl of 8 mM) intraperitoneally, anesthetized mice): rapidly reduced
- increase of pulse rate compared with nitroglycerin (mice; 0.8 μmol intraperitoneally): more pronounced than that observed with nitroglycerin
- time required for blood pressure to return to control values (mice; 0.8 μmol intraperitoneally): ~45 min
- blood pressure reduction compared with nitroglycerin (mice; equimolar amounts, intraperitoneally): reduced blood pressure more potently than an equimolar amount of nitroglycerin
- half-life of NO-Cbi in the mice (mice; mouse, in vivo): 30 to 60 min
- pulse rate above control values (mice; until 75 minutes): more than 10%
- EC50 (mouse aortic rings): 195 ± 12 nM
- blood pressure (rabbits; NO-Cbi infusion 3 μg/kg/min during phenylephrine, within seconds): began to decrease
- total tissue hemoglobin and oxyhemoglobin concentrations (rabbits; NO-Cbi infusion during phenylephrine): increased
